Data from patent US20230399358A1, “IMMUNOGLOBULIN PURIFICATION PEPTIDES AND THEIR USE” (North Carolina State University, priority 2019, published 2023).

Tested on: human polyclonal IgG in CHO-S cell culture fluid
Experiment: Static purification of IgG from CHO cell culture supernatant on peptide-Toyopearl resins, SDS-PAGE densitometry
Details: Gel B
Protocol: Measurement of IgG binding by peptide-based chromatographic adsorbents: For initial studies, 35 mg of MWRGWQ (SEQ ID NO:2)-Toyopearl, RHLGWF (SEQ ID NO:3)-Toyopearl, WQRHGI (SEQ ID NO:1)-Toyopearl, GWLHQR (SEQ ID NO:4)-Toyopearl, and HWRGWV (SEQ ID NO:18)-Toyopearl (control) resins were equilibrated in PBS pH 7.4, reaching a swollen volume of 0.1 mL, and subsequently incubated with 1 mg/mL IgG in 0.205 mg/mL CHO cell culture supernatant for 30 minutes. The resins were subsequently washed several times with PBS to remove non-specifically bound proteins. Elution was performed with 100 mM glycine buffer pH 2.5. Flowthrough and elution fractions were collected and analyzed by SDS PAGE under reducing conditions. The resulting gels were stained with Coomassie staining. Further, 25 mg of the adsorbents MWRGWQ (SEQ ID NO:2)-Toyopearl, NIFRGWQ (SEQ ID NO:21)-Toyopearl, MWRAWQ (SEQ ID NO:5)-Toyopearl, MWRGFQ (SEQ ID NO:7)-Toyopearl, MWRGWN (SEQ ID NO:22)-Toyopearl, (NorL) WRGWQ (SEQ ID NO:23)-Toyopearl, MGRGWQ (SEQ ID NO:24)-Toyopearl, MWRWQ (SEQ ID NO:6)-Toyopearl, MWRGGQ (SEQ ID NO:26)-Toyopearl, GWRGWQ (SEQ ID NO:8)-Toyopearl, WQRHGI (SEQ ID NO:1)-Toyopearl, WNRHGI (SEQ ID NO:12)-Toyopearl, WQRAGI (SEQ ID NO:28)-Toyopearl, WQRHAI (SEQ ID NO:11)-Toyopearl, WQRHGL (SEQ ID NO:9)-Toyopearl, FQRHGI (SEQ ID NO:29)-Toyopearl, and WQRHGV (SEQ ID NO:10)-Toyopearl resins were equilibrated in PBS pH 7.4, reaching a swollen volume of 0.1 mL, and subsequently incubated with 1 mg/mL IgG in PBS at pH 7.4 for 30 minutes. The amount of unbound IgG in the supernatant samples was quantified by Bradford assay and utilized to determine the IgG binding % by the peptide variants.
Characterization of IgG-binding peptide variants WQRHGI (SEQ ID NO:1), MWRGWQ (SEQ ID NO:2), RHLGWF (SEQ ID NO:3), and GWLHQR (SEQ ID NO:4) in competitive conditions: The four selected sequence variants were tested for their ability to purify human IgG from a CHO cell culture supernatant and found largely to mirror their in silico predictions. Even though they seemed to underperform in silico, RHLGWF (SEQ ID NO:3) and GWLHQR (SEQ ID NO:4) were tested alongside WQRHGI (SEQ ID NO:1) and MWRGWQ (SEQ ID NO:2) in these conditions in order to confirm their ability to bind IgG and examine their selectivity as predicted in silico. The feedstock was prepared by spiking human polyclonal IgG into a clarified null CHO-S cell culture fluid to obtain an IgG concentration of 1 mg/mL and a CHO HCP concentration of 0.205 mg/mL. An aliquot of 500 μL was loaded onto each peptide adsorbent in static conditions for 30 min. Following a washing step with PBS to remove loosely bound proteins, a first elution step was conducted using 0.1 M glycine buffer pH 2.5 to remove all bound proteins. Flow through fractions and pH 2.5 elution fractions were loaded neat and analyzed by SDS PAGE (FIGS. 6A-6B). The values of IgG purity in the eluted fractions were determined by densitometric analysis of the corresponding lanes on the gels, and are reported in Table 9.

Substance: WQRHGI
- % Purity (IgG over total proteins) (lane FT (flow-through)): 52.71%
- % Purity (IgG over total eluted proteins) (lane R (pH 2.5)): 78.79%
